In test [1] the test system is A549. In words: Relative drug sensitivity in NSCLC cell lines, BrdU Cell Proliferation ELISA. It counts as cell-based, human. The following applies: A549 cell line, EGFR+. How it is done: (§1) The NSCLC cell lines were grown using standard cell culture conditions: DMEM supplemented to contain 10% fetal bovine serum, 100 IU/ml penicillin, […] streptomycin and 2 mM L-glutamine (all from Invitrogen Life Technologies, Carlsbad, Calif.). […] Cytotoxicity was assessed in cells by BrdU Cell Proliferation calorimetric ELISA (Roche Applied Science, Indianapolis, Ind.). This is a calorimetric immunoassay for the quantification of cell proliferation based on the measurement of BrdU incorporation during DNA synthesis. To carry out the assays, the NSCLC cells were plated at 2500-5000 cells/well in 96 well microtiter plates and 24 hours later diluted monoclonal antibody drug was added. […] The cells were incubated at 37° C. for 48 hours at which time the BrdU labeling reagent was added. After two hours the labeling medium was removed and cells were fixed and the DNA was denatured using a FixDenat solution. The anti-BrdU antibody conjugated with peroxidase was added and immune complexes were detected by the subsequent substrate reaction. The reaction product was quantified by measuring the absorbance of the samples in an ELISA reader at […]. The greater the absorbency, the greater the number of live cells. […] Three to six independent BrdU assays were performed for each cell line.
(In an ELISA, binding on a coated surface is turned into a signal by an enzyme label.)

Test [2] deals with ChagoK1. Described as above. The format is cell-based, human. The conditions noted are these: ChagoK1 cell line. How it is done:
as §1

In test [3] the test system is H226. Described as above. It counts as cell-based, human. The following applies: H226 cell line, EGFR+. How it is done:
as §1

The test system of test [4] is H522. Described as above. The following applies: H522 cell line, EGFR negative. The format is cell-based, human. How it is done: as §1
Test [5] deals with L2987. The description is as above. The format is cell-based, human. The following applies: L2987 cell line. How it is done:
as §1

The test system of test [6] is LX1. Described as above. The format is cell-based, human. The conditions noted are these: LX1 (LX-1) cell line, EGFR negative. How it is done: as §1
Test [7] concerns A549 lung xenograft. In words: In vivo antitumor testing, lung xenograft model. The following applies: nude mice. How it is done: (§2) Tumors were propagated in nude mice as subcutaneous (sc) transplants using tumor fragments obtained from donor mice. Tumor passage occurred approximately every two to four weeks. Tumors were then allowed to grow to the pre-determined size window (usually between 100-200 mg, tumors outside the range were excluded) and animals were evenly distributed to various treatment and control groups. […] Treated animals were checked daily for treatment related toxicity/mortality. Each group of animals was weighed before the initiation of treatment (Wt1) and then again following the last treatment dose (Wt2). The difference in body weight (Wt2-Wt1) provided a measure of treatment-related toxicity. Tumor response was determined by measurement of tumors with a caliper twice a week, until the tumors reached a predetermined target size of 1 gm or became necrotic. Tumor weights (mg) were estimated from the formula: Tumor weight=(length×width^2)/2 Antitumor activity was determined in terms of primary tumor growth inhibition. This was determined in two ways: (i) calculating the relative median tumor weight (MTW) of treated (T) and control (C) mice at various time points (effects were expressed as % T/C); and (ii) calculating the tumor growth delay (T-C value), defined as the difference in time (days) required for the treated tumors (T) to reach a predetermined target size compared to those of the control group (C). Statistical evaluations of data were performed using Gehan's generalized Wilcoxon test for comparisons of time to reach tumor target size (Gehan 1965). Statistical significance was declared at p<0.05. Antitumor activity was defined as a continuous MTW % T/C≦50% for at least 1 tumor volume doubling time (TVDT) any time after the start of treatment, where TVDT (tumor volume doubling time)=median time (days) for control tumors to reach target size−median time (days) for control tumors to reach half the target size.
(§3) Treated animals were checked daily for treatment related toxicity/mortality.

For test [8], the system named is L2987 lung xenograft. Description: In vivo antitumor testing, lung xenograft model. The following applies: nude mice. How it is done: as §2, §3
The test system of test [9] is LX1 lung xenograft. In words: In vivo antitumor testing, lung xenograft model. The following applies: nude mice. How it is done: as §2, §3

Take `COc1cc2ncnc(Nc3ccc(F)c(Cl)c3)c2cc1OCCCN1CCOCC1` [gefitinib]: the resistance/sensitivity classification entry in test [1] is on record as “resistant”; in test [2] it was “sensitive”; in [3], “resistant”; in [4], “resistant”; in test [5], “resistant”; in test [6] it was “resistant”. For the same molecule, the “sensitivity of lung xenograft model” value is reported as “borderline sensitive” in [7], “sensitive” in test [8] and “resistant” in test [9].
